Measurements reported in ChEMBL document CHEMBL4627387, “Cucurbitane-Type Triterpenoids from the Vines of Momordica charantia and Their Anti-inflammatory Activities” (J Nat Prod, 2020).
Active and inactive are the calls of the source. No cut-off for these calls is given here.

Tests used:
[1] = Cytotoxicity against mouse RAW264.7 cells assessed as cell viability at 15 ug/ml after 24 hrs by alamarBlue assay relative to control; assay type: cell-based; conditions: read-out: Activity
MCF7 = assay: Antiproliferative activity against human MCF7 cells assessed as reduction in cell viability after 48 hrs by alamarBlue assay; assay type: functional, cell-based
HEp-2 = assay: Antiproliferative activity against human Hep2 cells assessed as reduction in cell viability after 48 hrs by alamarBlue assay; assay type: functional, cell-based
HepG2 = assay: Antiproliferative activity against human HepG2 cells assessed as reduction in cell viability after 48 hrs by alamarBlue assay; assay type: functional, cell-based
RAW264.7 [2] = assay: Cytotoxicity against mouse RAW264.7 cells assessed as reduction in cell viability after 24 hrs by alamarBlue assay; assay type: cell-based; conditions: RAW264.7, 24 h
[3] = tested on: Human immunodeficiency virus 1; assay: Antiviral activity against HIV 1 NL4-3 infected in human MT4 cells assessed as reduction in viral replication and measured on day 3 post infection by Nano-glo luciferase reporter gene assay; assay type: functional, organism-based
WiDr = assay: Antiproliferative activity against human WiDr cells assessed as reduction in cell viability after 48 hrs by alamarBlue assay; assay type: functional, cell-based
RAW264.7 [4] = assay: Antiinflammatory activity in mouse RAW264.7 cells assessed as inhibition of LPS-induced NO production incubated for 12 hrs by Griess reagent based assay; assay type: functional

## COC(=O)CC(=O)O[C@H]1CC[C@@H]2C(=C[C@H](O)[C@@H]3[C@@]2(C=O)CC[C@]2(C)[C@@H]([C@H](C)C/C=C/C(C)(C)OC)CC[C@@]32C)C1(C)C
[1]
  viability at 24 h, 15 ug/ml: 69%
MCF7
  Activity: inactive
HEp-2
  Activity: inactive
HepG2
  Activity: inactive
RAW264.7 [2]
  IC50: 15.6 µM
[3]
  Activity: inactive
WiDr
  Activity: inactive
RAW264.7 [4]
  inhibition (INH): 64.3%

## COC(=O)CC(=O)O[C@H]1CC[C@@H]2C(=C[C@H](O)[C@@H]3[C@@]2(C=O)CC[C@]2(C)[C@@H]([C@H](C)C/C=C/C(C)(C)O)CC[C@@]32C)C1(C)C
[1]
  viability at 24 h, 15 ug/ml: 67.6%
MCF7
  Activity: inactive
HEp-2
  Activity: inactive
HepG2
  Activity: inactive
RAW264.7 [2]
  IC50: 20.3 µM
[3]
  Activity: inactive
WiDr
  Activity: inactive
RAW264.7 [4]
  inhibition (INH): 65.1%

## O=c1c(O)c(-c2ccc(O)c(O)c2)oc2cc(O)cc(O)c12 [QUERCETIN]
[1]
  viability at 24 h, 15 ug/ml: 142%
RAW264.7 [2]
  IC50: 4.2 µM
RAW264.7 [4]
  inhibition (INH): 88.9%

## CO[C@H]1C=C2[C@@H](CC[C@H](O)C2(C)C)[C@]2(C=O)CC[C@]3(C)[C@@H]([C@H](C)C/C=C/C(C)(C)OC)CC[C@@]3(C)[C@H]12
[1]
  viability at 24 h, 15 ug/ml: 90.5%
MCF7
  Activity: inactive
HEp-2
  Activity: inactive
HepG2
  Activity: inactive
RAW264.7 [2]
  IC50: 35.6 µM
WiDr
  Activity: inactive
RAW264.7 [4]
  inhibition (INH): 35%

## CO[C@H]1C=C2[C@@H](CC[C@H](OC(=O)CC(=O)O)C2(C)C)[C@]2(C=O)CC[C@]3(C)[C@@H]([C@H](C)C/C=C/C(C)(C)O)CC[C@@]3(C)[C@H]12
[1]
  viability at 24 h, 15 ug/ml: 125%
MCF7
  Activity: inactive
HEp-2
  Activity: inactive
HepG2
  Activity: inactive
RAW264.7 [2]
  IC50: 24.4 µM
WiDr
  Activity: inactive
RAW264.7 [4]
  inhibition (INH): 51.2%

## C/C=C/C(=O)O[C@H]1CC[C@@H]2C(=C[C@H](O)[C@@H]3[C@@]2(C=O)CC[C@]2(C)[C@@H]([C@H](C)C/C=C/C(C)(C)O)CC[C@@]32C)C1(C)C
[1]
  viability at 24 h, 15 ug/ml: 94.7%
MCF7
  Activity: inactive
HEp-2
  Activity: inactive
HepG2
  Activity: inactive
RAW264.7 [2]
  IC50: 19.1 µM
WiDr
  Activity: inactive
RAW264.7 [4]
  inhibition (INH): 73.3%

## CCOC(C)(C)/C=C/C[C@@H](C)[C@H]1CC[C@@]2(C)[C@@H]3[C@@H](O)C=C4[C@@H](CC[C@H](OC(=O)CC(=O)O)C4(C)C)[C@]3(C=O)CC[C@]12C
[1]
  viability at 24 h, 15 ug/ml: 89.7%
MCF7
  Activity: inactive
HEp-2
  Activity: inactive
HepG2
  Activity: inactive
RAW264.7 [2]
  IC50: 24 µM
WiDr
  Activity: inactive
RAW264.7 [4]
  inhibition (INH): 50.4%

## C[C@H](C/C=C/C(C)(C)O)[C@H]1CC[C@@]2(C)[C@@H]3[C@@H](O)C=C4[C@@H](CC[C@H](OC(=O)CC(=O)O)C4(C)C)[C@]3(C=O)CC[C@]12C
[1]
  viability at 24 h, 15 ug/ml: 53.8%
MCF7
  Activity: inactive
HEp-2
  Activity: inactive
HepG2
  Activity: inactive
RAW264.7 [2]
  IC50: 16 µM
WiDr
  Activity: inactive
RAW264.7 [4]
  inhibition (INH): 77%

## CO[C@H]1O[C@]23C=C[C@@H]4[C@@]1(CC[C@]1(C)[C@@H]([C@H](C)C/C=C/C(C)(C)O)CC[C@@]41C)[C@@H]2CC[C@H](OC(=O)CC(=O)O)C3(C)C
[1]
  viability at 24 h, 15 ug/ml: 59.6%
MCF7
  Activity: inactive
HEp-2
  Activity: inactive
HepG2
  Activity: inactive
RAW264.7 [2]
  IC50: 11.3 µM
WiDr
  Activity: inactive
RAW264.7 [4]
  inhibition (INH): 66.1%

## CO[C@@H](C=C(C)C)C[C@@H](C)[C@H]1CC[C@@]2(C)[C@@H]3[C@@H](O)C=C4[C@@H](CC[C@H](OC(=O)CC(=O)O)C4(C)C)[C@]3(C=O)CC[C@]12C
[1]
  viability at 24 h, 15 ug/ml: 61.9%
MCF7
  Activity: inactive
HEp-2
  Activity: inactive
HepG2
  Activity: inactive
RAW264.7 [2]
  IC50: 16.1 µM
[3]
  Activity: inactive
WiDr
  Activity: inactive
RAW264.7 [4]
  inhibition (INH): 68.8%

## COC(C)(C)/C=C/C[C@@H](C)[C@H]1CC[C@@]2(C)[C@@H]3[C@@H](O)C=C4[C@@H](CC[C@H](OC(=O)CC(=O)O)C4(C)C)[C@]3(C=O)CC[C@]12C
[3]
  Activity: inactive

## CO[C@H]1C=C2[C@@H](CC[C@H](OC(=O)CC(=O)O)C2(C)C)[C@]2(C=O)CC[C@]3(C)[C@@H]([C@H](C)C/C=C/C(C)(C)OC)CC[C@@]3(C)[C@H]12
[1]
  viability at 24 h, 15 ug/ml: 72.4%
MCF7
  Activity: inactive
HEp-2
  Activity: inactive
HepG2
  Activity: inactive
RAW264.7 [2]
  IC50: 22.1 µM
[3]
  Activity: inactive
WiDr
  Activity: inactive
RAW264.7 [4]
  inhibition (INH): 56.5%

## CO[C@@H]1O[C@]23C=C[C@@H]4[C@@]1(CC[C@]1(C)[C@@H]([C@H](C)C/C=C/C(C)(C)O)CC[C@@]41C)[C@@H]2CC[C@H](OC(=O)CC(=O)O)C3(C)C
[1]
  viability at 24 h, 15 ug/ml: 113%
MCF7
  Activity: inactive
HEp-2
  Activity: inactive
HepG2
  Activity: inactive
RAW264.7 [2]
  IC50: 29.1 µM
WiDr
  Activity: inactive
RAW264.7 [4]
  inhibition (INH): 42.6%
